Measured values as given in patent US9359351B2, “Cap/endo dual inhibitors and their use in the treatment, amelioration or prevention of a viral disease” (priority 2014, dated 2016).

Legend:
[1] = target: PB2 cap binding domain (CBD) of an avian H5N1 influenza virus (Influenza A virus, UniProt Q9Q0V1); assay: biochemical; settings: Biacore KD
[2] = target: T1, influenza A virus (IAV) PA-Nter fragment (amino acids 1-209) (Influenza A virus, UniProt P31343); assay: biochemical; settings: FRET IC50
T1 construct: PA-Nter fragment (amino acids 1-209); made in house

[3] = system: influenza A virus (IAV) A/Aichi/2/68 (H3N2); assay: microbe, parasite or virus in culture; type: cell-based, influenza A virus A/Aichi/2/68 (H3N2) on MDCK cells; settings: H3N2, MDCK; for IC50: 48 h, read-out: CPE IC50; for inhibition at 50 µM: read-out: CPE % inhib
[4] = target: whole RNP complex, IAV strain A/PR/8/34 (Influenza A virus, UniProt P03428+P03433); assay: biochemical

Sequence of PB2 cap binding domain (CBD) of an avian H5N1 influenza virus (Q9Q0V1 318-483 limits assumed): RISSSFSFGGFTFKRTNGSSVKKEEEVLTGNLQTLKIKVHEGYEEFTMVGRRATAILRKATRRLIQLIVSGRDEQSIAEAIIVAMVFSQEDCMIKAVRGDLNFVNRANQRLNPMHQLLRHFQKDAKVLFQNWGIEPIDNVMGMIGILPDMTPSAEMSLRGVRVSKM

SMILES | Kd [1] | IC50 [2] | IC50 [3] | IC50 [4] | inhibition at 50 µM [3]
CC(C)N1CCn2c(COC(=O)c3cccn4c(=O)[nH]nc34)cc(=O)c(O)c2C1=O | > 100 µM | 0.41 µM | > 50 µM | – | –
CC(C)N1CCn2c(CNC(=O)[C@H](NC(=O)c3c[nH]c4ncc(C5CC5)nc34)c3ccccc3)cc(=O)c(O)c2C1=O | – | 2.34 µM | 8.2 µM | – | –
CC(C)N1CCn2c(CNC(=O)C3(NC(=O)c4c[nH]c5ncc(C6CC6)nc45)CCCCC3)cc(=O)c(O)c2C1=O | – | – | > 50 µM | 0.38 µM | –
CCC(NC(=O)c1c[nH]c2ncc(C3CC3)nc12)C(=O)NCc1cc(=O)c(O)c2n1CCN(C(C)C)C2=O (stereo not shown) | – | 0.46 µM | > 50 µM | – | –
CC(C)N1CCn2c(CNC(=O)[C@@H](Cc3cccc(Cl)c3)NC(=O)c3ccc4n[nH]c(=O)n4c3)cc(=O)c(O)c2C1=O | > 100 µM | 2.88 µM | 51.7 µM | – | –
CC(C)N1CCn2c(CNC(=O)CC(Nc3nc(-c4n[nH]c5ncc(F)cc45)ncc3F)C3CC3)cc(=O)c(O)c2C1=O (stereo not shown) | 8.16 µM | 19.7 µM | 48 µM | – | –
CC(C)N1CCn2c(CNC(=O)c3c[nH]c4ncc(C5CC5)nc34)cc(=O)c(O)c2C1=O | 12.8 µM | 0.87 µM | > 25 µM | – | –
CC(C)N1CCn2c(CNC(=O)c3cccc(Nc4nccc5[nH]ncc45)c3)cc(=O)c(O)c2C1=O | 97.6 µM | 0.55 µM | 21.8 µM | – | –
CC(C)N1CCn2c(CNC(=O)C3(NC(=O)c4cccn5c(=O)[nH]nc45)CCCCC3)cc(=O)c(O)c2C1=O | > 25 µM | 2.84 µM | > 50 µM | – | –
CC(C)[C@H](Nc1nc(C2=CN3C(=O)N=NC3C=C2)ncc1F)C(=O)NCc1cc(=O)c(O)c2n1CCN(C(C)C)C2=O (stereo partly shown) | – | – | > 50 µM | > 50 µM | –
CC(C)N1CCn2c(CNC(=O)[C@H]3CCC[C@@H](Nc4nc(-c5n[nH]c6ncc(F)cc56)ncc4F)C3)cc(=O)c(O)c2C1=O | – | > 25 µM | 15.1 µM | – | –
CC(C)[C@@H](CC(=O)NCc1cc(=O)c(O)c2n1CCN(C(C)C)C2=O)Nc1nc(C2=CN3C(=O)N=NC3C=C2)ncc1F (stereo partly shown) | – | – | > 1.28 µM | 8.15 µM | –
CC(C)N1CCn2c(COC(=O)c3c[nH]c4ncc(C5CC5)nc34)cc(=O)c(O)c2C1=O | 9.3 µM | 0.49 µM | 68.7 µM | – | –
CC(C)N1CCn2c(CNCCOC(=O)c3cccn4c(=O)[nH]nc34)cc(=O)c(O)c2C1=O | > 100 µM | 1.41 µM | > 50 µM | – | –
CC(C)N1CCn2c(CNC(=O)c3cccc(NC(=O)c4n[nH]c5ncccc45)c3)cc(=O)c(O)c2C1=O [drawing 29] | 19.6 µM | 1.22 µM | – | – | –
CC(C)N1CCn2c(CNC(=O)[C@H](NC(=O)c3c[nH]c4ncc(C5CC5)nc34)C3CC3)cc(=O)c(O)c2C1=O | – | – | – | 0.22 µM | 47%
CC(C)N1CCn2c(CNCCNc3cc4[nH]ccc4c(Cl)n3)cc(=O)c(O)c2C1=O | – | 0.58 µM | > 50 µM | – | –
CC(C)[C@H](NC(=O)c1cccn2c(=O)[nH]nc12)c1cc(=O)c(O)c2n1CCN(C(C)C)C2=O | 163 µM | 0.83 µM | > 50 µM | – | –
CCC(Nc1nc(-c2n[nH]c3ncc(F)cc23)ncc1F)C(=O)NCc1cc(=O)c(O)c2n1CCN(C(C)C)C2=O (stereo not shown) | – | 12.2 µM | > 50 µM | – | –
CC(C)N1CCn2c(CNC(=O)[C@H](NC(=O)c3cccn4c(=O)[nH]nc34)c3ccccc3)cc(=O)c(O)c2C1=O | > 100 µM | 9.87 µM | > 50 µM | – | –
CC(C)[C@H](NC(=O)c1c[nH]c2ncc(C3CC3)nc12)C(=O)NCc1cc(=O)c(O)c2n1CCN(C(C)C)C2=O | 16.8 µM | 0.75 µM | 42 µM | – | –
CC(C)N1CCn2c(CNC(=O)[C@H](Cc3cccc(Cl)c3)NC(=O)c3cccn4c(=O)[nH]nc34)cc(=O)c(O)c2C1=O | 475 µM | 0.291 µM | 31.2 µM | – | –

SMILES | Kd [1] | IC50 [2] | IC50 [3] | IC50 [4] | inhibition at 50 µM [3]
CC(C)N1CCn2c(CNc3nccc4[nH]ncc34)cc(=O)c(O)c2C1=O | > 100 µM | 0.4 µM | > 50 µM | – | –
CC(C)N1CCn2c(CNCCNc3nccc4[nH]ncc34)cc(=O)c(O)c2C1=O | – | 1.46 µM | > 50 µM | – | –
CCC(NC(=O)c1cccn2c(=O)[nH]nc12)C(=O)NCc1cc(=O)c(O)c2n1CCN(C(C)C)C2=O (stereo not shown) | 6.3 µM | 0.43 µM | > 50 µM | – | –
CC(C)N1CCn2c(CNC(=O)CCCCCNc3nc(C4=CN5C(=O)N=NC5C=C4)ncc3F)cc(=O)c(O)c2C1=O (stereo not shown) | – | – | > 25 µM | 5.35 µM | –
CC(C)N1CCn2c(COCCOc3nccc4[nH]ncc34)cc(=O)c(O)c2C1=O | > 100 µM | 0.37 µM | > 50 µM | – | –
CC(C)N1CCn2c(CNC(=O)CNC(=O)c3ccc4n[nH]c(=O)n4c3)cc(=O)c(O)c2C1=O | 14.1 µM | 1.94 µM | > 50 µM | – | –
CC(C)N1CCn2c(CNC(=O)CCCCCNc3nc(-c4n[nH]c5ncc(F)cc45)ncc3F)cc(=O)c(O)c2C1=O | 0.42 µM | 19.7 µM | 15 µM | – | –
CC(C)N1CCn2c(CNC(=O)CC(NC(=O)c3c[nH]c4ncc(C5CC5)nc34)C3CC3)cc(=O)c(O)c2C1=O (stereo not shown) | – | – | – | 0.14 µM | 10%
CC(C)N1CCn2c(CNC(=O)c3cccc(NC(=O)c4n[nH]c5ncccc45)c3)cc(=O)c(O)c2C1=O [drawing 28] | 26.3 µM | 1.51 µM | > 50 µM | – | –
CC(C)N1CCn2c(CNC(=O)c3ccc4n[nH]c(=O)n4c3)cc(=O)c(O)c2C1=O | 187 µM | 0.87 µM | > 50 µM | – | –
CC(C)N1CCn2c(CNC(=O)c3cccn4c(=O)[nH]nc34)cc(=O)c(O)c2C1=O | > 50 µM | 0.28 µM | > 50 µM | – | –
CC(C)N1CCn2c(CNC(=O)CNC(=O)c3c[nH]c4ncc(C5CC5)nc34)cc(=O)c(O)c2C1=O | 3.96 µM | 0.27 µM | > 50 µM | – | –
CC(C)N1CCn2c(CNC(=O)CCCCCNC(=O)c3c[nH]c4ncc(C5CC5)nc34)cc(=O)c(O)c2C1=O | 6.36 µM | 0.57 µM | 31.8 µM | – | –
CC(C)N1CCn2c(CNc3cc4[nH]ncc4c(Cl)n3)cc(=O)c(O)c2C1=O | 305 µM | 0.848 µM | > 50 µM | – | –
CC(C)N1CCn2c(CNC(=O)C[C@H](NC(=O)c3c[nH]c4ncc(C5CC5)nc34)c3ccccc3)cc(=O)c(O)c2C1=O | – | – | > 33.7 µM | 1.53 µM | –
CC(C)N1CCn2c(CNc3cccc4n[nH]c(=O)n34)cc(=O)c(O)c2C1=O | 99.3 µM | 0.936 µM | > 50 µM | – | –
CC(C)N1CCn2c(CNC(=O)[C@@H](Cc3cccc(Cl)c3)NC(=O)c3n[nH]c4ncccc34)cc(=O)c(O)c2C1=O | 55.1 µM | 1.09 µM | > 50 µM | – | –
CC(C)N1CCn2c(CNC(=O)[C@H](NC(=O)c3ccc4n[nH]c(=O)n4c3)c3ccccc3)cc(=O)c(O)c2C1=O | > 100 µM | 1.45 µM | > 50 µM | – | –
CC(C)N1CCn2c(CNC(=O)c3n[nH]c4ncccc34)cc(=O)c(O)c2C1=O | > 100 µM | 0.4 µM | > 50 µM | – | –
CC(C)N1CCn2c(CNC(=O)c3cccc(NC(=O)c4ccc5n[nH]c(=O)n5c4)c3)cc(=O)c(O)c2C1=O | 21.9 µM | 1.66 µM | 35.1 µM | – | –
CC(C)[C@H](Nc1nc(-c2n[nH]c3ncc(F)cc23)ncc1F)C(=O)NCc1cc(=O)c(O)c2n1CCN(C(C)C)C2=O | 10 µM | 8.04 µM | > 50 µM | – | –
